Laboratory results as given in ChEMBL document CHEMBL5465560, “Selectivity Literature for EUbOPEN Chemogenomic Library” (2024).
Positions count from the first letter of the chain named.

Columns and labels:
[1] = target: T1, Uncharacterized serine/threonine-protein kinase SBK3 (Homo sapiens) (UniProt P0C264); assay: Selectivity interaction (Ambit KINOMEscan and KiNATiv profiling in Jurkat cells) EUB0000090b SBK3; format: cell-based; details: at 1 µM
T1 sequence (whole entry): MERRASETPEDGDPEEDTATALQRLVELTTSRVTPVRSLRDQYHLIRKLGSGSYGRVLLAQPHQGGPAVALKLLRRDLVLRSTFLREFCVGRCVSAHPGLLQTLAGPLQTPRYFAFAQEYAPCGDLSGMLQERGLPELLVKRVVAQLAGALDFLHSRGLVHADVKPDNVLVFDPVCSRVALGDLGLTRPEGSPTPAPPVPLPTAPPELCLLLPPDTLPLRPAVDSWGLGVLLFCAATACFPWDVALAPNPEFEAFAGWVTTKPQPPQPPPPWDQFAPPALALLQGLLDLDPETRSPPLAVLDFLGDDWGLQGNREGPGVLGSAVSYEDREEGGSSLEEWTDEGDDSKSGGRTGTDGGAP

[2] = system: T2, Receptor-type tyrosine-protein kinase FLT3 (Homo sapiens), P36888 [D835Y]; assay: (§1) Selectivity interaction (KinomeScan (DiscoverX)) EUB0001619a FLT3; details: at 1 µM
T2 sequence (whole entry): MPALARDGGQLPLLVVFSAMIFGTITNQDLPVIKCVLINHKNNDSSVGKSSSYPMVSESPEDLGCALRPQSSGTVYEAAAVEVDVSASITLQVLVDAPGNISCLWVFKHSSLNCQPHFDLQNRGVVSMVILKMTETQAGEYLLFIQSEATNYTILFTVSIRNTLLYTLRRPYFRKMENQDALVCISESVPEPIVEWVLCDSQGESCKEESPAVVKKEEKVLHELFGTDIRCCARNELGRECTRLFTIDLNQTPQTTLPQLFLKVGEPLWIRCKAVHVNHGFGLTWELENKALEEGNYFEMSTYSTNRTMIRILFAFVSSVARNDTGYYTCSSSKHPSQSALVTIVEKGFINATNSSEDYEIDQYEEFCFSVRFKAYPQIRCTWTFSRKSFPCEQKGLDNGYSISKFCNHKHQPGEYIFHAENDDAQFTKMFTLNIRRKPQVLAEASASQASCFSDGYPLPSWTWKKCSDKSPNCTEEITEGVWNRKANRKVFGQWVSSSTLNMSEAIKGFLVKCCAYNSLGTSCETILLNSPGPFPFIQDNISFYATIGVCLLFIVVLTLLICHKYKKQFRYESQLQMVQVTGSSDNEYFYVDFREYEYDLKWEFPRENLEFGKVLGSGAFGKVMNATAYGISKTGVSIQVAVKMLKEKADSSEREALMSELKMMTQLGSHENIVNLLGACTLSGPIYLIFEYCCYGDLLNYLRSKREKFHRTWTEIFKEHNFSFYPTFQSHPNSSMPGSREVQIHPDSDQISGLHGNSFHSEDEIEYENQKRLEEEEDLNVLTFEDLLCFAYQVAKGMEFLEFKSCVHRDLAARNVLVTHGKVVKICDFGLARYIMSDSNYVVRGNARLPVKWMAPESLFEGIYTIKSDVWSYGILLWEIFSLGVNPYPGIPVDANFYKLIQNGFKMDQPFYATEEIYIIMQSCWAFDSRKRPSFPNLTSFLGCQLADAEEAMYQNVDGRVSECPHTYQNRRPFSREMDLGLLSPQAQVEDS

[3] = system: T3, Receptor-type tyrosine-protein kinase FLT3 (Homo sapiens), P36888 [R834Q]; assay: as §1; details: at 1 µM
T3 sequence (whole entry): T2 sequence (whole entry) with R834Q, Y835D

SRSF protein kinase 1 = SRSF protein kinase 1 (Homo sapiens, UniProt Q96SB4); assay: Selectivity interaction (Kinase panel (Invitrogen)) EUB0000639a SRPK1; details: at 200 nM
SRSF protein kinase 1, sequence (Q96SB4 whole entry): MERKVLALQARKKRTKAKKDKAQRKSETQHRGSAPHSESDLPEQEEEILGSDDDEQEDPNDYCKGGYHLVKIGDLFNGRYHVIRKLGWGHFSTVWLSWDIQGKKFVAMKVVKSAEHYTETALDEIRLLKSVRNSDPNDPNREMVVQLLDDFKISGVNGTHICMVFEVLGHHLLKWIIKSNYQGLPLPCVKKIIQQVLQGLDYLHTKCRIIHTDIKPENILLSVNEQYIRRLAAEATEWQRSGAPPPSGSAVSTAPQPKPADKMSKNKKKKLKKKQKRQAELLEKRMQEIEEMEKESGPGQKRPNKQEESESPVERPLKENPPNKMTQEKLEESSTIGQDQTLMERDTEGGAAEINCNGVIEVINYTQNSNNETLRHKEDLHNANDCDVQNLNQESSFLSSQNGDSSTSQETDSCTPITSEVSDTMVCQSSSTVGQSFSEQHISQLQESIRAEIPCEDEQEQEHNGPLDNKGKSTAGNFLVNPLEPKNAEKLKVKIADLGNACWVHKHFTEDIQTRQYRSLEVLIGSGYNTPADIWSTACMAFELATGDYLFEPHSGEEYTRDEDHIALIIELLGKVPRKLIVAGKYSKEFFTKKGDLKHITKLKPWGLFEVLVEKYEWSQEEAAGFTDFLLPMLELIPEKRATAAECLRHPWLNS

[4] = target: Protein-tyrosine kinase 2-beta (Homo sapiens) (UniProt Q14289); assay: Selectivity interaction (KinomeScan (DiscoverX)) EUB0000695a PTK2B; details: at 100 nM
Protein-tyrosine kinase 2-beta (Homo sapiens), sequence (Q14289 whole entry, looked up): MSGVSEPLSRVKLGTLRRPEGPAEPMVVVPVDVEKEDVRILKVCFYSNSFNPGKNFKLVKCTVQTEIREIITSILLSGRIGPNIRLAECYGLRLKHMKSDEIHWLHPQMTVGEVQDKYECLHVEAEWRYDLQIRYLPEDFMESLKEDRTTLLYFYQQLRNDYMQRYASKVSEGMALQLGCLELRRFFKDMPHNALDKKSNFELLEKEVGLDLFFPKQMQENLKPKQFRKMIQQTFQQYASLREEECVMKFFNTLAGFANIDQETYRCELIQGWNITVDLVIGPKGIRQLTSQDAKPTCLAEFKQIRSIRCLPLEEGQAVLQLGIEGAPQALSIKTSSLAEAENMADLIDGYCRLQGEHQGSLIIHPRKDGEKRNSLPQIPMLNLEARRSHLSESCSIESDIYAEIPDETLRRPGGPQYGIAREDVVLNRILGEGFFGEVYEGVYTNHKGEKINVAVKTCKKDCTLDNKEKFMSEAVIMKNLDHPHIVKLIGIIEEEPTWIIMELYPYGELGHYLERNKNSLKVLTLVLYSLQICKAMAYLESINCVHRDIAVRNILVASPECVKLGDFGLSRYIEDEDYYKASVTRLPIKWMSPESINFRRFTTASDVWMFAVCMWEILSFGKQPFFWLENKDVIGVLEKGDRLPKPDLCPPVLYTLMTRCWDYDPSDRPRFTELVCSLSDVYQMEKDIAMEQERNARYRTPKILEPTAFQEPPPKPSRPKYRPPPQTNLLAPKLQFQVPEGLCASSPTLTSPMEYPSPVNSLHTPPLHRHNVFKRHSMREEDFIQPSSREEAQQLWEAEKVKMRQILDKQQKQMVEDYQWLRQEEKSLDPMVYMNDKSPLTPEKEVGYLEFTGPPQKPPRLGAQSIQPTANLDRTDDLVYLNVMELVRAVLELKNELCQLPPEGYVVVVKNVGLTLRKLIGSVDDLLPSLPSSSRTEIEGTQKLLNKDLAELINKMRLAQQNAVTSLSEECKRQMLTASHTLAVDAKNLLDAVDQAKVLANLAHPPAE

**Q.** `CN(C)C/C=C/C(=O)Nc1ccc(C(=O)N2CCCC(Nc3ncc(Cl)c(-c4c[nH]c5ccccc45)n3)C2)cc1` (stereo not given) was tested. Which % of control [1] did it give?
**A.** Its % of control is 82%.

**Q.** `N#Cc1cccc(-c2c[nH]c3ncnc(N4CCOCC4)c23)c1` was tested. Which % of control [2] did it give?
**A.** The % of control was 65%.

**Q.** What about the % of control [3] of the same compound?
**A.** Its % of control is 93%.

**Q.** Which % of inhibition (SRSF protein kinase 1) does the source give for `CC[C@@H]1[C@H](F)C(=O)N[C@@H]1COc1nccc2cc(C(N)=O)c(OC)cc12` [ZIMLOVISERTIB] here?
**A.** Its % of inhibition is 0.109%.

**Q.** `Cc1cc(F)c(C(=O)Nc2cccc(-c3nncn3C(C)C)n2)cc1-n1cnc(C2CC2)c1` was tested. Which % of control [4] did it give?
**A.** Its % of control is 100%.
